Paper PMC8006202, “Influence of YES1 Kinase and Tyrosine Phosphorylation on the Activity of OCT1” (Frontiers in Pharmacology, 2021)
Like-named read-outs stand apart in the source and are kept apart here.

Legend:
[1] = target: T1, mouse OCT1 (mOCT1) (Mus musculus, UniProt O08966); experiment: Cellular uptake of [14C] TEA in HEK293 cells overexpressing mOCT1, with or without inhibitor; assay type: cell-based
T1 construct: expressed in transfected cells
T1 sequence (O08966 1-556): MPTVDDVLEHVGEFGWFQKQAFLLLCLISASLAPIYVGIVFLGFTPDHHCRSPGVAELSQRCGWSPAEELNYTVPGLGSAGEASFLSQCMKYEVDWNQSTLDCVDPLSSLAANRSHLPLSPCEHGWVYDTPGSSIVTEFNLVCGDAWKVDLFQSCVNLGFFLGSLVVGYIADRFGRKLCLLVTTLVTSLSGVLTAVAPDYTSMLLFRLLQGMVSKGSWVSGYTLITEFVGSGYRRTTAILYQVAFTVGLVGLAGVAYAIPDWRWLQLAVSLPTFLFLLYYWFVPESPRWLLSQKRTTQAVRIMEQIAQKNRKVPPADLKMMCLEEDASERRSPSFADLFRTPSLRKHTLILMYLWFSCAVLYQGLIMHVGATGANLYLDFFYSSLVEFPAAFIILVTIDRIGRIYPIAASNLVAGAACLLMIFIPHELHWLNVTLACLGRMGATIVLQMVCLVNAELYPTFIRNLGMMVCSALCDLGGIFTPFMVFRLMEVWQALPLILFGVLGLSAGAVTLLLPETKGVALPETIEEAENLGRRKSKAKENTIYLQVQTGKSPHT
Protocol: (§1) Human embryonic kidney (HEK293) cells were obtained from the American Type Culture Collection (ATCC, Manassas, VA). HEK293 cells stably transfected with mouse OCT1 (mOCT1) or human OCT1 (hOCT1) were cultured in Dulbecco’s Modified Eagle Media (DMEM) media supplemented with 10% fetal bovine serum (FBS) and grown at 37°C in a humidified incubator containing 5% CO2. Radiolabeled [^14C] TEA and [^14C] metformin were obtained from American Radiochemicals (St. Louis, MO). Cellular uptake assays were performed 48 h following transient transfection by Lipofectamine 3000 Transfection Reagent (Thermo Fisher Scientific, Waltham, MA). ON-TARGETplus Human YES1 siRNA was obtained from Dharmacon (Lafayette, CO). RNA extraction kits were obtained from Omega Bio-tek (Norcross, GA).
(§2) Uptake assays were performed with radiolabeled TEA (2 µM) or metformin (5 µM) as described previously ([Sprowl et al., 2013]; [Pabla et al., 2015]) in the presence or absence of TKIs. The results were normalized to uptake values in cells stably transfected with an empty vector treated with vehicle alone (Supplementary Figure S1). Prior to cellular accumulation experiments, cells were grown to 90% confluence on poly-lysine coated multi-well plates. For uptake studies, cells were rinsed with warm PBS and incubated in the presence of a vehicle or inhibitor, prepared in serum and phenol red-free DMEM media for 15 min. Subsequently, media was removed followed by the addition of radiolabeled TEA and metformin along with inhibitor, and cellular uptake was measured after a 15-min co-incubation period. Total radioactivity originating from TEA and metformin was determined using liquid scintillation counting after lysing the cells with 1 N NaOH, a neutralizing step with 2 M HCl. A Pierce protein assay (Thermo Fisher Scientific, Waltham, MA) was used to normalize radioactivity readings to account for variation in cell number between samples.

[2] = target: T2, OCT2 (hOCT2) (Homo sapiens, UniProt O15244); experiment: OCT2 transport inhibition; assay type: cell-based; details: models overexpressing hOCT2, Supplementary Figure S4D
T2 construct: expressed in transfected cells; host or cells: overexpressing cell model
T2 sequence (O15244 1-555): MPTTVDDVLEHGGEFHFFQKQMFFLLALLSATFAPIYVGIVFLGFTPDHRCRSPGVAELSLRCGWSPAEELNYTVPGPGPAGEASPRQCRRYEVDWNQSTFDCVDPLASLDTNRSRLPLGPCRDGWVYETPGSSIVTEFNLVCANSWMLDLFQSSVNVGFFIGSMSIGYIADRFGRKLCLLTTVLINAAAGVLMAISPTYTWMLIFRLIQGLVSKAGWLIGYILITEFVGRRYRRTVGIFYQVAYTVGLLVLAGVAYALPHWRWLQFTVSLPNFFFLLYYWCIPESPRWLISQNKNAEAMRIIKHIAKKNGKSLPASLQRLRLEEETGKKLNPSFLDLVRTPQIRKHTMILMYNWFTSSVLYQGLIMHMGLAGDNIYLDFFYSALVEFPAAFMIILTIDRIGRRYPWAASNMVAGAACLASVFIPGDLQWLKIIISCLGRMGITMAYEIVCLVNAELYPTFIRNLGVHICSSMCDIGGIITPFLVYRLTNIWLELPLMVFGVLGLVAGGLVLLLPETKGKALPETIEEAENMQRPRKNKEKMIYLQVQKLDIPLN
Protocol: as §2

[3] = target: T3, human OCT1 (hOCT1) (Homo sapiens, UniProt O15245); experiment: Cellular uptake of [14C] TEA or [14C] metformin in HEK293 cells overexpressing hOCT1, with or without inhibitor; assay type: cell-based; details: for OCT1 function (TEA transport) in presence of TKI: HEK293-hOCT1, TKI 10 µM, Figure 2D
T3 construct: expressed in transfected cells
T3 sequence (O15245 1-554): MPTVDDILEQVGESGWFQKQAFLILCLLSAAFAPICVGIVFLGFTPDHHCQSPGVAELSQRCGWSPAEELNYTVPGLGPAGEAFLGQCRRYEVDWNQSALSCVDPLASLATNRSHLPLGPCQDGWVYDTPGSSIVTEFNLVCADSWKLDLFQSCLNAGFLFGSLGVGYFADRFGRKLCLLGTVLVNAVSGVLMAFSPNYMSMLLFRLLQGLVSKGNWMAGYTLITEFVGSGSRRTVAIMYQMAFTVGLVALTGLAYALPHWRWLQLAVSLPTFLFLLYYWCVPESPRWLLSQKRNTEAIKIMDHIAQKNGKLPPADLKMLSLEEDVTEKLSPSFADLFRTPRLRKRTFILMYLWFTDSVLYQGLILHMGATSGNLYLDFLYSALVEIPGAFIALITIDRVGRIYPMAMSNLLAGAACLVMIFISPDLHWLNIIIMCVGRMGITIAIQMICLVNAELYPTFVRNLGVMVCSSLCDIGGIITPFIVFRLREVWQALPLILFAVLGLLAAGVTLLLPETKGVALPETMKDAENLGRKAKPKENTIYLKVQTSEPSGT
Protocol: as §1
as §2, with “The” for “Uptake assays were performed with radiolabeled TEA (2 µM) or metformin (5 µM) as described previously ([Sprowl et al., 2013]; [Pabla et al., 2015]) in the presence or absence of TKIs. The”

[4] = test system: OCT1; design: method as in Furmanski et al., 2013; details: ref Furmanski et al., 2013; cited from earlier work
[5] = target: T4, hepatic OCT1 (Mus musculus, UniProt O08966); experiment: Plasma isobutyryl L-carnitine (IBC) after a single oral dose of dasatinib in mice; assay type: in vivo; design: from tissue; host or cells: liver of wild-type mice, in vivo; details: single oral dose 15 mg/kg
T4 sequence (O08966 1-556): T1 sequence (O08966 1-556)

[6] = test system: OCT1 (mouse and human); experiment: Dose-response OCT1 uptake inhibition, summarised across mOCT1 and hOCT1 models and test substrates; assay type: cell-based; details: mouse and human, probe [14C] TEA (2 µM) or [14C] metformin (5 µM); range over mOCT1/hOCT1 models and test substrates
Protocol: as §1, §2

[7] = test system: OCT1; experiment: as above; assay type: cell-based, human and mouse; details: for OCT1 inhibition: Yes/No; for OCT1 function in dose-response experiments: species-independent, regardless of test substrate
Protocol: as §1, §2

[8] = test system: YES1 / hOCT1; experiment: Chemical genetics: hOCT1 uptake assay in HEK293 cells transfected with wild-type YES1 or T348I gatekeeper mutant, then dasatinib; assay type: cell-based, human; details: HEK293-hOCT1, dasatinib 1 µM 15 min, [14C] TEA uptake
Protocol: as §2, with “The” for “Uptake assays were performed with radiolabeled TEA (2 µM) or metformin (5 µM) as described previously ([Sprowl et al., 2013]; [Pabla et al., 2015]) in the presence or absence of TKIs. The”

[9] = target: T5, OCT3 (Homo sapiens, UniProt O75751); experiment: OCT3 transport inhibition by TKIs (Supplementary Figure S2); assay type: cell-based
T5 sequence (O75751 1-556): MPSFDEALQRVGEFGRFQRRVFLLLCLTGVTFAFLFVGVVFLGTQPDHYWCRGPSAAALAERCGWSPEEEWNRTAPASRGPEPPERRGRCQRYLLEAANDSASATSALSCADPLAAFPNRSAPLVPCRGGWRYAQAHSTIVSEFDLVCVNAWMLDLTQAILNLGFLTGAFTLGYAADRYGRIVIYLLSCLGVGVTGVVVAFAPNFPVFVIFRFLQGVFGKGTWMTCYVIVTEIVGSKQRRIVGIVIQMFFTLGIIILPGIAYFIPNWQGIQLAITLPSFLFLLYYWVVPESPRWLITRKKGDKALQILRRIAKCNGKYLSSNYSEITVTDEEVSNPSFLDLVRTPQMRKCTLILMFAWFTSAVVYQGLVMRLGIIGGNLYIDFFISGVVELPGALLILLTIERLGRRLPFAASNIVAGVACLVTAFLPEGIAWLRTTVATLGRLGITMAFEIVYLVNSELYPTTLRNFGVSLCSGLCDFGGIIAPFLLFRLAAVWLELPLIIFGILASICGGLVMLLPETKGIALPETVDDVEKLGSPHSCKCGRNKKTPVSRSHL
Protocol: as §2

[10] = target: T2, OCT2 (hOCT2); details: cited from earlier work; for OCT2 inhibition: Yes/No, TKIs previously found to inhibit OCT2
[11] = target: T4, hepatic OCT1; details: OCT1/2-deficient vs wild-type mice, [14C] TEA 0.2 mg/kg i.v.
[12] = target: YES1; details: read-out: YES1 Kd; ref Klaeger et al., 2017; KINOMEscan data—HMS LINCS Project, 2020; cited from earlier work

SMILES	IC50 at 15 min [6] [nM]	OCT1 inhibition [7]	OCT1 function in dose-response experiments [7]	OCT1 function (TEA transport) in presence of TKI [3]	OCT3 function in presence of TKI [9]	OCT2 inhibition ([10]; ref Sprowl et al., 2016)	other results
Cc1cc2cc(C(=O)c3cnn(-c4cnc(Oc5c(F)cccc5F)cc4C)c3N)[nH]c2cc1NS(C)(=O)=O [CH6953755]	–	–	–	–	–	–	inhibition of mOCT1-mediated transport ([1]; models overexpressing mOCT1, Supplementary Figure S4C): also observed; inhibition of hOCT2-mediated transport [2]: also observed; IC50 ([3]; HEK293-hOCT1, [14C] TEA 2 µM, 15 min pre-incubation + 15 min co-incubation, read-out: IC50, hOCT1-mediated transport of TEA): 2760 nM; IC50 ([3]; HEK293-hOCT1, [14C] metformin 5 µM, read-out: IC50, hOCT1-mediated transport of metformin): 2310 nM
Cc1nc(Nc2ncc(C(=O)Nc3c(C)cccc3Cl)s2)cc(N2CCN(CCO)CC2)n1 [Dasatinib, dasatinib]	[…]	Yes	potently inhibited	inhibit OCT1 function	potently inhibiting	Yes	transported substrate of OCT1 [4]: not themselves transported substrate; IC50 ([1]; HEK293-mOCT1, [14C] TEA 2 µM, 15 min pre-incubation + 15 min co-incubation, read-out: IC50, mOCT1-mediated transport of TEA): […]; Ki ([1]; read-out: inhibition constant (Ki), Dixon plot, mOCT1): 870 nM; plasma levels of IBC after dasatinib, OCT1/2-deficient or OCT1/2/MATE1-deficient mice [5]: not; plasma levels of IBC after dasatinib, wild-type mice ([5]; wild-type mice): transient, statistically significant increase; dasatinib-mediated OCT1 inhibition in cells with TKI-resistant YES1 (T348I gatekeeper) mutant [8]: rescue; dasatinib-mediated OCT1 inhibition in cells with YES1 wild-type construct [8]: retained sensitivity; OCT2 inhibition, co-incubation designs ([10]; ref Minematsu and Giacomini, 2011): only a weak inhibitor; OCT2 function, pre-incubation conditions ([10]; ref Sprowl et al., 2016): potently inhibits
CCc1nc(C(N)=O)c(Nc2ccc(N3CCC(N4CCN(C)CC4)CC3)c(OC)c2)nc1NC1CCOCC1 [Gilteritinib, gilteritinib]	10 to 20	Yes	potently inhibited	inhibit OCT1 function	no influence	Yes	–
C=CC(=O)N1CCC[C@@H](n2nc(-c3ccc(Oc4ccccc4)cc3)c3c(N)ncnc32)C1 [Ibrutinib, ibrutinib]	890 to 1180	Yes	potently inhibited	inhibit OCT1 function	no influence	Yes	–
CS(=O)(=O)CCNCc1ccc(-c2ccc3ncnc(Nc4ccc(OCc5cccc(F)c5)c(Cl)c4)c3c2)o1 [Lapatinib, lapatinib]	–	No	–	not	–	No	–
CC[N+](CC)(CC)CC [TEA, tetraethylammonium]	–	–	–	–	–	–	hepatic uptake of TEA (liver-to-plasma concentration ratio) in OCT1/2-deficient mice [11]: dramatically reduced
COc1cc2c(Nc3ccc(Br)cc3F)ncnc2cc1OCC1CCN(C)CC1 [Vandetanib, vandetanib]	1350 to 9050	Yes	potently inhibited	inhibit OCT1 function	–	Yes	Kd [12]: 120 nM
COc1cc(Nc2c(C#N)cnc3cc(OCCCN4CCN(C)CC4)c(OC)cc23)c(Cl)cc1Cl [bosutinib]	–	–	–	inhibit OCT1 function	no influence	–	–
CCN(CC)CCNC(=O)c1c(C)[nH]c(/C=C2\C(=O)Nc3ccc(F)cc32)c1C [sunitinib]	–	–	–	inhibit OCT1 function	potently inhibiting	–	–
